According to patent publication US10047063B2, “Method for improving the oxygen-releasing ability of hemoglobin to organs or peripheral tissues in human bodies and a medication thereof” (NATIONAL SUN YAT-SEN UNIVERSITY, priority 2014, dated 2018):

Key:
Format in all cases: biochemical
[1] = target: fetal hemoglobin (α2γ2, HbF) (Homo sapiens, UniProt P69905); test: Resonance Raman spectroscopy: percentage of "R" state of oxygenated fetal hemoglobin treated with compounds; details: oxygen atmosphere
From the text: In order to evaluate the effect of the compound of phthalides on stabilizing the oxygenated hemoglobin variants in the low oxygen affinity “T” state, compounds including 2,3-bisphosphoglycerate (group A0), Z-butylidenephthalide (group A1), Z-ligustilide (group A2), senkyunolide A (group A3), senkyunolide H (group A4) and senkyunolide I (group A5) are mixed with fetal hemoglobin (α2γ2, HbF) as a representative hemoglobin variant which is also a potential hemoglobin-based blood substitute, followed by the resonance Raman spectroscopy measurements under the oxygen atmosphere. The percentages of the high oxygen affinity “R” state of fetal hemoglobin treated with 2,3-bisphosphoglycerate (shown in FIG. 3a) and various phthalide phyto-compounds (shown in FIGS. 3b to 3f) are also analyzed from the resonance Raman spectroscopy measurements, following the same spectral analysis procedures as that of normal hemoglobin.

hemoglobin [2] = target: T1, hemoglobin (Homo sapiens, UniProt P68871+P69905); test: Oxygen equilibrium curve (OEC) measurement, P50 of treated hemoglobin
From the text: FIG. 4a is a diagram illustrating the oxygen equilibrium curve (OEC) of hemoglobin treated with 2,3-bisphosphoglycerate with a molar ratio to Hb of 1.0 (dash black curve). The OEC of pure hemoglobin (solid black curve) is also shown as the reference. The P50 value derived from the OEC for pure hemoglobin and for Hb treated with 2,3-bisphosphoglycerate are 12.6 and 16.4±1 mmHg, respectively.
To evaluate the effect of the compound of phthalides on reducing the oxygen affinity and thus promoting the oxygen release, the oxygen equilibrium curves (OEC) for hemoglobin treated with 2,3-bisphosphoglycerate (solid black curve in FIG. 4a) and Z-butylidenephthalide (Z-butylidenephthalide-to-Hb molar ratio of: 0.2, solid black curve; 0.5, dash-dot black curve; 0.8, dot black curve in FIG. 4b), are measured in comparison with that of pure hemoglobin (dash black curves in FIGS. 4a and 4b).
From the oxygen equilibrium measurements, the P50 values of hemoglobin treated compounds, including Z-butylidenephthalide, Z-ligustilide and senkyunolide A are obtained, as shown in FIGS. 5a to 5c. P50, defined as the oxygen partial pressure required for 50% of Hb to become oxygenated or deoxygenated, is a direct measure of oxygen affinity for hemoglobin, which increases with decreasing oxygen affinity.

hemoglobin [3] = target: T1, hemoglobin; test: Resonance Raman spectroscopy: percentage of high oxygen affinity "R" state of oxygenated hemoglobin treated with compounds; details: varying mole ratio to Hb tetramer, 532 nm excitation, oxygen atmosphere
From the text: In order to evaluate the effect of the compound of Formula I on stabilizing the oxygenated hemoglobin in the low oxygen affinity “T” state, compounds including 2,3-bisphosphoglycerate (group A0), Z-butylidenephthalide (group A1), Z-ligustilide (group A2), senkyunolide A (group A3), senkyunolide H (group A4) and senkyunolide I (group A5) are mixed with hemoglobin as a function of their mole ratio to hemoglobin, followed by the resonance Raman spectroscopy measurements at 532 nm excitation wavelength under the oxygen atmosphere. The percentages of the high oxygen affinity “R” state for hemoglobin treated with 2,3-bisphosphoglycerate (shown in FIG. 2a, as reference) and various phthalide phyto-compounds (shown in FIGS. 2b to 2f) are analyzed from the resonance Raman spectroscopy measurements. In more specific, the percentage of high oxygen affinity “R” state for each treated hemoglobin was obtained by fitting a simulated spectrum comprised of adjustable weighing factors of the T and R states of pure hemoglobin to the obtained resonance Raman spectrum of treated hemoglobin. […]

[4] = effector-to-Hb mole ratio of 0.8 (Level II), pure hemoglobin 12.6±1

T1 sequence (P69905 2-142 limits assumed): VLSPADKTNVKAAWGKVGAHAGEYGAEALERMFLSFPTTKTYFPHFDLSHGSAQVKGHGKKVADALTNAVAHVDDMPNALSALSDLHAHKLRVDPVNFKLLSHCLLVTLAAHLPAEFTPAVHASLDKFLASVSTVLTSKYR
T1 sequence (P68871 2-147 limits assumed): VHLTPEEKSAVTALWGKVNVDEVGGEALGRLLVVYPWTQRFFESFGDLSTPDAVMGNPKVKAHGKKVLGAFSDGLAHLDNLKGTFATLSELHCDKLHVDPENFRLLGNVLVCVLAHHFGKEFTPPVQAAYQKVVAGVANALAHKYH
fetal hemoglobin (α2γ2, HbF), sequence (P69905 2-142 limits assumed): as the sequence (P69905 2-142 limits assumed) above
fetal hemoglobin (α2γ2, HbF), sequence (P69892 2-147 partner limits assumed): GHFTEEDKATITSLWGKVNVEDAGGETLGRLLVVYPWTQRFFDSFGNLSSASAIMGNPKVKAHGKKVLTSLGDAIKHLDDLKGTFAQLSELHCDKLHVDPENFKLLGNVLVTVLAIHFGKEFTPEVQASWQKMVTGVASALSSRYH

Row | "R" state suppression efficiency (hemoglobin [3]) | P50 of hemoglobin treated with compound (hemoglobin [2]; molar ratio to Hb of 1.0, pure hemoglobin 12.6) [mmHg] | Compound | effect on relative ratio of high oxygen affinity "R" state of fetal hemoglobin [1] | P50 of hemoglobin treated with compound (hemoglobin [2]; [4]) [mmHg]
1 |  |  | CCC/C=C1\OC(=O)c2ccccc21 [Z-butylidenephthalide] | can stabilize the low oxygen affinity “T” state | 17.4
2 |  |  | CCCC[C@@H]1OC(=O)C2=C1CCC=C2 [senkyunolide A] | can stabilize the low oxygen affinity “T” state | 
3 | about 20% | 16.4±1 | O=C(O)C(COP(=O)(O)O)OP(=O)(O)O (centres unmarked) [2,3-bisphosphoglycerate, reference compound] | no effect | 
4 |  |  | CCC/C=C1\OC(=O)C2=C1CC[C@@H](O)[C@H]2O [senkyunolide H] | can stabilize the low oxygen affinity “T” state | 
5 |  |  | CCC/C=C1\OC(=O)C2=C1CC[C@@H](O)[C@@H]2O [senkyunolide I] | can stabilize the low oxygen affinity “T” state | 15.2±1
6 |  |  | CCC/C=C1\OC(=O)C2=C1CCC=C2 [Z-ligustilide] | can stabilize the low oxygen affinity “T” state | 15.9
